Measurements: PubChem BioAssay (NCI)
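Following 48 hours of exposure in 96-well plates, responses at five concentrations were used to interpolate endpoints linearly. TGI: concentration producing complete growth inhibition.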

Assays:
Assay in all cases: growth of human tumour cells (NCI), 48 h
[1] = tested on: 786-0 renal
[2] = tested on: A498 renal
[3] = tested on: A549 NSCLC
[4] = tested on: ACHN renal
[5] = tested on: BT-549 breast
[6] = tested on: CAKI-1 renal
[7] = tested on: CCRF-CEM leukemia
[8] = tested on: COLO 205 colon
[9] = tested on: DU-145 prostate
[10] = tested on: EKVX NSCLC
[11] = tested on: HCC-2998 colon
[12] = tested on: HCT-116 colon
[13] = tested on: HCT-15 colon
[14] = tested on: HL-60(TB) leukemia
[15] = tested on: HOP-62 NSCLC
[16] = tested on: HOP-92 NSCLC
[17] = tested on: HS 578T breast
[18] = tested on: HT29 colon
[19] = tested on: IGROV1 ovarian
[20] = tested on: K-562 leukemia
[21] = tested on: KM12 colon
[22] = tested on: LOX IMVI melanoma
[23] = tested on: M14 melanoma
[24] = tested on: MALME-3M melanoma
[25] = tested on: MCF7 breast
[26] = tested on: MDA-MB-435
[27] = tested on: MDA-N
[28] = tested on: MOLT-4 leukemia
[29] = tested on: NCI-H226 lung
[30] = tested on: NCI-H23 lung
[31] = tested on: NCI-H522 lung
[32] = tested on: NCI/ADR-RES ovarian
[33] = tested on: OVCAR-3 ovarian
[34] = tested on: OVCAR-4 ovarian
[35] = tested on: OVCAR-5 ovarian
[36] = tested on: OVCAR-8 ovarian
[37] = tested on: PC-3 prostate
[38] = tested on: RPMI-8226 leukemia
[39] = tested on: RXF 393 renal
[40] = tested on: SF-268 CNS
[41] = tested on: SF-539 CNS
[42] = tested on: SK-MEL-2 melanoma
[43] = tested on: SK-MEL-28 melanoma
[44] = tested on: SK-MEL-5 melanoma
[45] = tested on: SN12C renal
[46] = tested on: SNB-75 CNS
[47] = tested on: SR leukemia
[48] = tested on: SW-620 colon
[49] = tested on: T-47D breast
[50] = tested on: TK-10 renal
[51] = tested on: UACC-257 melanoma
[52] = tested on: UACC-62 melanoma
[53] = tested on: UO-31 renal
[54] = tested on: SF-295 CNS
[55] = tested on: SK-OV-3 ovarian
[56] = tested on: SNB-19 CNS
[57] = tested on: U251 CNS
[58] = tested on: MDA-MB-231 breast
[59] = tested on: NCI-H460 lung

Structure (SMILES): C(=Nc1ccc(-c2nc3ccccc3[nH]2)cc1)c1ccco1
- TGI [1]: > 100 µM
- TGI [2]: > 100 µM
- TGI [3]: > 100 µM
- TGI [4]: > 100 µM
- TGI [5]: > 100 µM
- TGI [6]: > 100 µM
- TGI [7]: > 100 µM
- TGI [8]: > 100 µM
- TGI [9]: > 100 µM
- TGI [10]: > 100 µM
- TGI [11]: > 100 µM
- TGI [12]: > 100 µM
- TGI [13]: > 100 µM
- TGI [14]: > 100 µM
- TGI [15]: > 100 µM
- TGI [16]: > 100 µM
- TGI [17]: > 100 µM
- TGI [18]: > 100 µM
- TGI [19]: > 100 µM
- TGI [20]: > 100 µM
- TGI [21]: > 100 µM
- TGI [22]: > 100 µM
- TGI [23]: > 100 µM
- TGI [24]: > 100 µM
- TGI [25]: > 100 µM
- TGI [26]: > 100 µM
- TGI [27]: > 100 µM
- TGI [28]: > 100 µM
- TGI [29]: > 100 µM
- TGI [30]: > 100 µM
- TGI [31]: > 100 µM
- TGI [32]: > 100 µM
- TGI [33]: > 100 µM
- TGI [34]: > 100 µM
- TGI [35]: > 100 µM
- TGI [36]: > 100 µM
- TGI [37]: > 100 µM
- TGI [38]: > 100 µM
- TGI [39]: > 100 µM
- TGI [40]: > 100 µM
- TGI [41]: > 100 µM
- TGI [42]: > 100 µM
- TGI [43]: > 100 µM
- TGI [44]: > 100 µM
- TGI [45]: > 100 µM
- TGI [46]: > 100 µM
- TGI [47]: > 100 µM
- TGI [48]: > 100 µM
- TGI [49]: > 100 µM
- TGI [50]: > 100 µM
- TGI [51]: > 100 µM
- TGI [52]: > 100 µM
- TGI [53]: > 100 µM

Structure (SMILES): CO[C@@H]1C[C@H](OC(N)=O)[C@@H]2C=C[C@@H]3/C=C(C)/C=C/[C@@H](C)[C@H](/C(C)=C/[C@@H](C)NC(C)=O)OC(=O)/C=C/C=C(C)\C=C\[C@]3(C)[C@@H]2C1
- TGI [1]: 2.74 µM
- TGI [2]: 0.0867 µM
- TGI [3]: 0.223 µM
- TGI [4]: 0.613 µM
- TGI [5]: 12 µM
- TGI [6]: 0.167 µM
- TGI [7]: 7.59 µM
- TGI [8]: 0.514 µM
- TGI [9]: 2.43 µM
- TGI [10]: 0.843 µM
- TGI [11]: 0.664 µM
- TGI [12]: 0.107 µM
- TGI [13]: 0.717 µM
- TGI [14]: 3.04 µM
- TGI [15]: 0.429 µM
- TGI [16]: 0.148 µM
- TGI [17]: 0.0455 µM
- TGI [18]: 0.278 µM
- TGI [19]: 0.471 µM
- TGI [20]: 8.38 µM
- TGI [21]: 0.163 µM
- TGI [22]: 0.00689 µM
- TGI [23]: 0.912 µM
- TGI [24]: 0.798 µM
- TGI [25]: 17 µM
- TGI [26]: 3.11 µM
- TGI [27]: 2.12 µM
- TGI [28]: 13.8 µM
- TGI [30]: 2.84 µM
- TGI [31]: 0.103 µM
- TGI [32]: 2.69 µM
- TGI [33]: 0.251 µM
- TGI [34]: 11.4 µM
- TGI [35]: 3.63 µM
- TGI [36]: 50 µM
- TGI [37]: 1.58 µM
- TGI [38]: 0.353 µM
- TGI [39]: 0.455 µM
- TGI [40]: 1.4 µM
- TGI [54]: 0.111 µM
- TGI [41]: 0.0846 µM
- TGI [42]: 2.12 µM
- TGI [43]: 0.458 µM
- TGI [44]: 0.604 µM
- TGI [55]: 0.192 µM
- TGI [45]: 1.67 µM
- TGI [56]: 10.2 µM
- TGI [46]: 0.0826 µM
- TGI [47]: 5.11 µM
- TGI [48]: 1.24 µM
- TGI [49]: 2.98 µM
- TGI [57]: 0.375 µM
- TGI [51]: 0.0866 µM
- TGI [52]: 0.292 µM
- TGI [53]: 0.111 µM

Structure (SMILES): CC[C@H](C)C1=C(O)[N@+]2([O-])Oc3ccc(-c4c(O)c(O)c(-c5ccc(O)cc5)c(OC(C)=O)c4OC(C)=O)cc3O[C@]2([C@@H](C)CC)C(=O)N1O
- TGI [1]: > 50 µM
- TGI [2]: > 50 µM
- TGI [3]: > 50 µM
- TGI [4]: > 50 µM
- TGI [5]: > 50 µM
- TGI [6]: > 50 µM
- TGI [8]: > 50 µM
- TGI [9]: > 50 µM
- TGI [10]: > 50 µM
- TGI [12]: 20.2 µM
- TGI [13]: > 50 µM
- TGI [14]: > 50 µM
- TGI [15]: > 50 µM
- TGI [16]: 32.1 µM
- TGI [17]: > 50 µM
- TGI [18]: > 50 µM
- TGI [19]: 28.2 µM
- TGI [20]: > 50 µM
- TGI [21]: > 50 µM
- TGI [22]: > 50 µM
- TGI [23]: > 50 µM
- TGI [24]: > 50 µM
- TGI [25]: > 50 µM
- TGI [58]: > 50 µM
- TGI [26]: > 50 µM
- TGI [27]: > 50 µM
- TGI [28]: > 50 µM
- TGI [30]: > 50 µM
- TGI [59]: > 50 µM
- TGI [31]: 17.4 µM
- TGI [32]: > 50 µM
- TGI [33]: > 50 µM
- TGI [34]: 36.2 µM
- TGI [35]: > 50 µM
- TGI [36]: > 50 µM
- TGI [37]: > 50 µM
- TGI [38]: 29.9 µM
- TGI [39]: > 50 µM
- TGI [40]: > 50 µM
- TGI [54]: > 50 µM
- TGI [41]: > 50 µM
- TGI [42]: > 50 µM
- TGI [43]: > 50 µM
- TGI [44]: > 50 µM
- TGI [55]: 48 µM
- TGI [45]: > 50 µM
- TGI [56]: > 50 µM
- TGI [47]: > 50 µM
- TGI [48]: > 50 µM
- TGI [49]: > 50 µM
- TGI [50]: > 50 µM
- TGI [57]: > 50 µM
- TGI [51]: > 50 µM
- TGI [52]: > 50 µM
- TGI [53]: > 50 µM

Structure (SMILES): Nc1ccc(-c2nc3ccccc3s2)cc1C#Cc1ccccc1
- TGI [1]: 32.3 µM
- TGI [2]: 42.5 µM
- TGI [3]: 49 µM
- TGI [4]: 38.5 µM
- TGI [5]: 34.7 µM
- TGI [6]: 37.2 µM
- TGI [7]: 93.2 µM
- TGI [8]: 31 µM
- TGI [9]: 72.5 µM
- TGI [10]: 39.8 µM
- TGI [12]: 27.4 µM
- TGI [13]: 38.2 µM
- TGI [14]: 62.1 µM
- TGI [15]: 28.2 µM
- TGI [16]: 52.8 µM
- TGI [17]: 50.2 µM
- TGI [18]: 35.4 µM
- TGI [19]: 28.4 µM
- TGI [20]: 84.4 µM
- TGI [21]: 37.9 µM
- TGI [22]: 36 µM
- TGI [23]: 30.6 µM
- TGI [24]: 28.5 µM
- TGI [25]: 19.2 µM
- TGI [58]: 47.8 µM
- TGI [26]: 36 µM
- TGI [27]: 35.8 µM
- TGI [28]: > 100 µM
- TGI [29]: 49.2 µM
- TGI [30]: 52.6 µM
- TGI [59]: 35.1 µM
- TGI [31]: 34.2 µM
- TGI [32]: 48.6 µM
- TGI [33]: 33.1 µM
- TGI [34]: 44 µM
- TGI [35]: 54.5 µM
- TGI [36]: 42.4 µM
- TGI [37]: 45.4 µM
- TGI [38]: 47.2 µM
- TGI [39]: 34.6 µM
- TGI [40]: 54.2 µM
- TGI [54]: 47.1 µM
- TGI [41]: 35.4 µM
- TGI [44]: 31.1 µM
- TGI [55]: 60.7 µM
- TGI [45]: 37.1 µM
- TGI [56]: 72.1 µM
- TGI [46]: 59.7 µM
- TGI [47]: > 100 µM
- TGI [48]: 34.7 µM
- TGI [49]: > 100 µM
- TGI [50]: 30.3 µM
- TGI [57]: 38.6 µM
- TGI [51]: 31.3 µM
- TGI [52]: 33.9 µM
- TGI [53]: 36.7 µM
